Laboratory results from patent US20240425478A1, “CYCLOPENTYLPYRAZOLE CDK2 INHIBITORS” (Genentech, Inc., priority 2021, published 2024).
Read-outs that look alike come from different tables or passages of the source.

Key:
[1] = system: SKOV-3 (ATCC HTB-77); assay: SKOV-3 EdU incorporation cell proliferation assay (CDK4/6-dependent); type: cell-based; conditions: for IC50: Homo sapiens, cellular assay, read-out: CDK4/6 SKOV-3 IC50; for FS SKOV-3/OVISE: fold selectivity, cellular IC50 ratio
Procedure, shortened: (§1)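 EdU incorporation (0.5 μM final, last 8 h) follows a 16 h compound exposure at 37 °C, 5% CO2 in RPMI plus 10% FBS, 0.5% DMSO. After fixation, imaging scores EdU-positive cells; a 4-parameter logistic fit of that fraction gives IC50.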

[2] = system: OVISE (JCRB1043, CCNE1-amplified); assay: OVISE EdU incorporation cell proliferation assay (CDK2-dependent); type: cell-based; conditions: for IC50: cellular assay, read-out: CDK2 OVISE IC50; for FS SKOV-3/OVISE / FS p-H3/OVISE: fold selectivity; for FS p-H3/OVISE: cellular p-H3 IC50 over OVISE IC50; for increased fold-selectivity SKOV-3/OVISE over Comparator C: (+) sign after FS SKOV-3/OVISE; for improvement in CDK2 OVISE cell potency over Comparator C: Comparator C 5.5 μM
Procedure, shortened: as §1

[3] = biological target: T1, Cyclin Dependent Kinase 2/Cyclin E1 (CDK2-cycE1) (Homo sapiens, UniProt P24941); assay: CDK2-cycE1 TR-FRET (LANCE) enzyme assay; type: biochemical; conditions: for Ki: enzymatic assay, read-out: CDK2 Ki; for FS CDK1/CDK2 / FS CDK4/CDK2: fold selectivity; for increased fold-selectivity CDK4/CDK2 over Comparator C: (+) sign after FS CDK4/CDK2;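 on improvement in potency against CDK2 (Ki) over Comparator C: fold lower CDK2 Ki than comparator c (Ki 0.032 µM)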
T1 construct: purchased ProQinase 0050-0055-1
Procedure, shortened: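 Kinase reaction buffer: 50 mM HEPES pH 7.5, 10 mM MgCl2, 2 mM TCEP, 0.05% BGG, 0.01% Brij 35, with 30 min compound–enzyme pre-incubation.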

[4] = system: HCT116 cells; assay: p-H3 HCT-116 mitotic release cell proliferation assay (cellular CDK1); type: cell-based; conditions: Homo sapiens, HCT-116; Table O, cellular assay; read-out: CDK1 p-H3 IC50
Procedure, shortened: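 Phospho-Histone H3 (Ser10) in lysates was quantified by a two-antibody HTRF FRET read (≥2 h, room temperature). Before this, HCT116 cells held in mitosis by 16 h of 500 nM nocodazole were treated with compound for 4 h at 37 °C, 0.1% DMSO.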

[5] = biological target: T2, Cyclin Dependent Kinase 4/Cyclin D3 (CDK4-cycD3) (Homo sapiens, UniProt P11802); assay: CDK4-cycD3 TR-FRET (LANCE) enzyme assay; type: biochemical; conditions: for Ki: Table O, enzymatic assay; for FS CDK4/CDK2: fold selectivity, enzymatic Ki ratio
T2 construct: purchased Carna Biosciences 04-105
T2 sequence (P11802 whole entry): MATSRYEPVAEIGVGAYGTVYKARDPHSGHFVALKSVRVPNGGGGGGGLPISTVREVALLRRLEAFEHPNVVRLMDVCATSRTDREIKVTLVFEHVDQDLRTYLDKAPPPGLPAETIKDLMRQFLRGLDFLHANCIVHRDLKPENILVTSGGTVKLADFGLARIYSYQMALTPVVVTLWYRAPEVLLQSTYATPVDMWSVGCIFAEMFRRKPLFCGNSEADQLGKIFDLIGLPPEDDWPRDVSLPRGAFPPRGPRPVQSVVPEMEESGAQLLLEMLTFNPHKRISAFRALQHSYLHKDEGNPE
T2 sequence (P30281 whole entry partner): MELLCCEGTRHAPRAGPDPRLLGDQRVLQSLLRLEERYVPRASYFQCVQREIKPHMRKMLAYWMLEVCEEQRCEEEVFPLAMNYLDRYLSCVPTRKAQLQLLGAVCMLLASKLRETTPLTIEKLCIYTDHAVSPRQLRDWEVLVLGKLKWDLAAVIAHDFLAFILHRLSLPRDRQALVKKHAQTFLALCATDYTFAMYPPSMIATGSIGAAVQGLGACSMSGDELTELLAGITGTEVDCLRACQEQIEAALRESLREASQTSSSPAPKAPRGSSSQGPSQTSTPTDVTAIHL
Procedure, shortened: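 Compound dose responses pre-incubated 30 min with enzyme mix in 50 mM HEPES pH 7.5, 10 mM MgCl2, 2 mM TCEP, 0.05% BGG, 0.01% Brij 35. Reaction quenched with EDTA (15 mM final); Eu-anti-phospho-4E-BP1 TR-FRET detection, acceptor/donor ratio. Ki derived by Morrison equation.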

[6] = biological target: T3, Cyclin Dependent Kinase 1/Cyclin A2 (CDK1-cycA2) (Homo sapiens, UniProt P06493); assay: CDK1-cycA2 TR-FRET (Lance) enzyme assay; type: biochemical; conditions: for Ki: Table O, enzymatic assay; for FS CDK1/CDK2: fold selectivity, enzymatic Ki ratio
T3 construct: purchased ProQinase 0134-0054-1
T3 sequence (P06493 whole entry): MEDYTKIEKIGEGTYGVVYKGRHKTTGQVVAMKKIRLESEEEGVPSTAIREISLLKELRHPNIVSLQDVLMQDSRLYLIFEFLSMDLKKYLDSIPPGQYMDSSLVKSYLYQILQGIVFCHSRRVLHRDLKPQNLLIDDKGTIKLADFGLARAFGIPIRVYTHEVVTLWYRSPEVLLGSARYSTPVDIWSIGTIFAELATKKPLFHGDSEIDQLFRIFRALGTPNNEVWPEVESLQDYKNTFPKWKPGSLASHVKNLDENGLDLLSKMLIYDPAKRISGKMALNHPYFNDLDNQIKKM
T3 sequence (P20248 whole entry partner): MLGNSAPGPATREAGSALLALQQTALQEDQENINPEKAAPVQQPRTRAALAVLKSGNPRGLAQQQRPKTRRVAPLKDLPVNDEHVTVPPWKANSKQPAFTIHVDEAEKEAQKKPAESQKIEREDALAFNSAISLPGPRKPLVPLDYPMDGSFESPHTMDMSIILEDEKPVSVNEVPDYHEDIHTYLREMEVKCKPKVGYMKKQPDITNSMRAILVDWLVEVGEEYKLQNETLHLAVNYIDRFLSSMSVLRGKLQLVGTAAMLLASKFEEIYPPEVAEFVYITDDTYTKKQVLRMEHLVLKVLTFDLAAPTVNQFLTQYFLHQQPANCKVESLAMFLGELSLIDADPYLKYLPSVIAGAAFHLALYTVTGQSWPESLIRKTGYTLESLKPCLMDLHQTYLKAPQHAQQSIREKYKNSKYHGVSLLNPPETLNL
Procedure, shortened: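 TR-FRET (Lance) detection of phospho-4E-BP1 with a europium-labelled antibody after EDTA quench (15 mM final); signal taken as acceptor/donor ratio. Enzyme and compound were pre-incubated 30 min in HEPES pH 7.5 buffer with MgCl2, TCEP, BGG and Brij 35. Ki derived by Morrison fit.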

[7] = Table O, cellular SKOV-3 IC50 over OVISE IC50
[8] = Table O, enzymatic CDK1 Ki over CDK2 Ki
[9] = Table O, enzymatic CDK4 Ki over CDK2 Ki
[10] = Table Q, in brackets after OVISE IC50

| Compound | IC50 ([1]; SK-OV-3, Table O) [nM] | IC50 ([2]; Table O) [nM] | FS SKOV-3/OVISE [2, 7] | FS p-H3/OVISE ([2]; Table O) | Ki ([3]; Table O) [nM] | FS CDK1/CDK2 [3, 8] | FS CDK4/CDK2 [3, 9] | IC50 [4] [nM] | Ki [5] [nM] | Ki [6] [nM] | IC50 ([1]; SK-OV-3, Table Q) [nM] | increased fold-selectivity SKOV-3/OVISE over Comparator C ([2]; Table Q) | FS SKOV-3/OVISE ([2]; Table Q, cellular) | improvement in CDK2 OVISE cell potency over Comparator C [2, 10] [fold] | increased fold-selectivity CDK4/CDK2 over Comparator C ([3]; Table Q) | Ki ([3]; Table Q) [nM] | FS CDK1/CDK2 ([3]; Table Q, enzymatic) | FS CDK4/CDK2 ([3]; Table Q, enzymatic) | also measured |
| --- | --- | --- | --- | --- | --- | --- | --- | --- | --- | --- | --- | --- | --- | --- | --- | --- | --- | --- | --- |
| CC(C)(C)NC(=O)O[C@@H]1CC[C@H](c2cc(Nc3ccccn3)n[nH]2)C1 [Example 4G, (1R,3S)-3-(3-(pyridin-2-ylamino)-1H-pyrazol-5-yl)cyclopentyl tert-butylcarbamate] | 1500 | 240 | 6.3 | 1.0 | 1.7 | 44 | 16 | 240 | 27 | 75 |  |  |  |  |  |  |  |  | IC50 ([1]; SK-OV-3, Table R): 1500 nM; IC50 ([1]; SK-OV-3, Table S): 1500 nM; FS SKOV-3/OVISE increased over Comparator D, (+) sign ([1]; Table R): (+); FS SKOV-3/OVISE ([1]; Table R): 6.3; FS SKOV-3/OVISE ([1]; Table S): 6.3; CDK2 OVISE IC50 fold change in potency versus Comparator D ([2]; Table R, in brackets after OVISE IC50): 16 fold; CDK2 OVISE IC50 fold change in potency versus Comparator E ([2]; Table S, in brackets after OVISE IC50): 0.7 fold; Ki ([3]; Table R): 1.7 nM; CDK2 Ki fold change in potency versus Comparator D ([3]; Table R, in brackets after CDK2 Ki): 1.6 fold; Ki ([3]; Table S): 1.7 nM; CDK2 Ki fold change in potency versus Comparator E ([3]; Table S, in brackets after CDK2 Ki): 0.3 fold; FS CDK4/CDK2 increased over Comparator D, (+) sign ([5]; Table R): (+); FS CDK4/CDK2 ([5]; Table R): 16; FS CDK4/CDK2 ([5]; Table S): 16; FS CDK1/CDK2 increased over Comparator D, (+) sign ([6]; Table R): (+); FS CDK1/CDK2 ([6]; Table R): 44; FS CDK1/CDK2 ([6]; Table S): 44 |
| Cc1cncc(Nc2cc([C@H]3CC[C@@H](OC(=O)NC(C)C)C3)[nH]n2)n1 [Example 2M, (1R,3S)-3-(3-((6-methylpyrazin-2-y1)amino)-1H-pyrazol-5-yl)cyclopentyl isopropylcarbamate] | 580 | 20 | 29 | 0.35 | 0.26 | 24 | 110 | 7 | 28 | 6.3 | 580 | (+) (The (+) sign in Table Q signifies desirable increased fold-selectivity of the exemplary compounds over Comparator C) | 29 | 275 | (+) (The (+) sign in Table Q signifies desirable increased fold-selectivity of the exemplary compounds over Comparator C) | 0.26 | 24 | 110 | improvement in potency against CDK2 (Ki) over Comparator C [3]: 123 fold |
| Cc1nc(C#N)ccc1Nc1cc([C@H]2CC[C@@H](OC(=O)NC(C)C)C2)[nH]n1 [Example 2Z, (1R,3S)-3-(3-((6-cyano-2-methylpyridin-3-yl)amino)-1H-pyrazol-5-yl)cyclopentyl isopropylcarbamate] | 18000 | 250 | 72 | 1.6 | 5 | 110 | 260 | 410 | 1300 | 550 | 18000 | (+) (The (+) sign in Table Q signifies desirable increased fold-selectivity of the exemplary compounds over Comparator C) | 72 | 22 | (+) (The (+) sign in Table Q signifies desirable increased fold-selectivity of the exemplary compounds over Comparator C) | 5 | 110 | 260 | increased fold-selectivity CDK1/CDK2 over Comparator C ([3]; Table Q, (+) sign after FS CDK1/CDK2): (+) (The (+) sign in Table Q signifies desirable increased fold-selectivity of the exemplary compounds over Comparator C); improvement in potency against CDK2 (Ki) over Comparator C ([3]; Table Q, in brackets after CDK2 Ki, Comparator C 0.032 μM): 6.4 fold |
